Measurements taken from patent US5082980A (Case Western Reserve University, priority 1990, dated 1992).

How the values were obtained:
[1] = test system: cerebral blood flow; details: areas of high flow rate; limitation of water extraction in the brain tissue; cited from earlier work
[2] = Sterility and pyrogen status of the injectable product; details: patient-ready product
[3] = Toxic doses / physiological effects of the non-radioactive impurities; details: quantity present in product, Table I

[15OH2] [^15 O labeled water]
cerebral blood flow measurement, deviation [1]: underestimation of cerebral blood flow in areas of high flow rate

CCCC[15OH] [^15 O labeled butanol]
sterility and pyrogen status [2]: sterile and pyrogen-free

OB(O)O [boric acid]
quantity in the product relative to quantities with observed physiological effects [3]: well below any quantity which has been observed to have any physiological effects
